The values below come from patent US10563272B2, “Compositions comprising Metarhizium fungi and use thereof as a pesticide” (Cotton Research and Development Corporation, priority 2015, dated 2020).

For one series, the system named is predatory bugs. The experiment in a line: Rate trial on conventional cotton, Norwood 2012 (Example 10): predatory bugs. It counts as in vivo, Hemiptera (Nabidae, Lygaeidae, Pentatomidae). Conditions: P>0.05. The protocol: (§1) This trial was conducted on commercial conventional cotton crops on a farm at Norwood (29° 28'S, 149° 50′E) near Moree, NSW, from 28 Feb. to 21 Mar. 2012. The cotton used for the trial was at the early squaring stage, when it was attractive to green mirids (Khan et al. 2004).
(§2) The efficacy of the following treatments against green mirids and predatory insects were evaluated: • 1. 250 mL/ha DAT 511 spore in oil (1×10^7 spores/ml); • 2. 500 mL/ha DAT 511 spore in oil (1×10^7 spores/ml); • 3. 1 L/ha DAT 511 spore in oil (1×10^7 spores/ml); • 4. 62.5 mL/ha of Fipronil; and • 5. Unsprayed (negative control).
(§3) The treatment plots were arranged in a randomized complete block design with six replicates per treatment. Each replicated plot measured 40 m wide (40 rows) and 90 m long.
(§4) Foliar application of each treatment was made on 28 Feb. (for both green mirids and beneficial insects) and 13 Mar. […]
(§5) Pre-treatment counts of adult and nymph green mirids, predatory beetles, predatory bugs, predatory lacewings and spiders were made by visual inspection of whole cotton plants. Both adults and nymphs of beneficial insects were counted. Plants were assessed in randomly selected one-metre lengths of row of each treatment replicate (i.e. 6 m per treatment). […] Data are expressed as numbers of green mirid adults and nymphs counted per metre per treatment.

The subject of a further series is predatory beetles. In words: Bollgard II cotton, Auscott-Togo 2012-13, Field 63 (Experiment 2): predatory beetles. It counts as in vivo, Coleoptera (Coccinellidae, Melyridae). To be noted: 62.5 mL/ha. The protocol: Two separate trials (Experiment 1 in Field 77; Experiment 2 in Field 63) were conducted in Bollgard II cotton crops on a commercial cotton farm at Auscott-Togo near Narrabri, New South Wales from 11 Feb. to 5 Mar. 2013 (Field 77) and 19 Feb. to 6 Mar. 2013 (Field 63). The cotton used for each of the trials was at the late squaring to pod setting and maturation stages which was fairly attractive to green mirids.
In both trials, the efficacy of the following treatments against green mirids and predatory insects was evaluated: • 1. 250 mL/ha DAT 511 spore in oil (1×10^7 spores/ml); • 2. 500 mL/ha DAT 511 spore in oil (1×10^7 spores/ml); • 3. 1 L/ha DAT 511 spore in oil (1×10^7 spores/ml); • 4. 62.5 mL/ha of fipronil; and • 5. Unsprayed (negative control).
as §3
Foliar application of each treatment was made on 28 Feb. (for both green mirids and beneficial insects) and 13 Mar. 2012 (for beneficial insects alone) using a ground spray rig fitted with flat fan nozzles to achieve a droplet size of 200 μm. The treatment was applied during the mornings when temperatures were between 20° C. and 28° C. The timing of treatment was based on the IPM Guidelines and recommendations by CottonLogic to use an economic threshold of 0.5 green mirids per metre (Deutscher and Wilson 1999; Khan et al. 2004).
Pre-treatment counts of green mirid adults and nymphs, predatory beetles, predatory bugs, predatory lacewings and spiders were made by visual inspection of whole cotton plants. Both adults and nymphs of beneficial insects were counted. Plants were assessed in randomly selected one-metre lengths of row of each replicate (i.e. 6 m per treatment). Post-treatment counts were made 3, 7, 14 and 21 days after treatment. Data are expressed as numbers of green mirid adults and nymphs counted per metre for each treatment.

A further series deals with green mirids. The experiment in a line: Rate trial on conventional cotton, ACRI 2011-12 (Example 9): green mirids. It counts as in vivo, Creontiades dilutus. The protocol:
This trial was conducted in an irrigated field of commercial conventional cotton at the Australian Cotton Research Institute (ACRI) farm in Narrabri, NSW, during the 2011-2012 season. The treatments in this trial were as follows: • 1. 250 mL/ha DAT 511; • 2. 500 mL/ha DAT 511; and • 3. 1 L/ha DAT 511.
Results were compared with data from unsprayed conventional cotton crops (negative control) and conventional cotton crops treated with 62.5 mL/ha of fipronil. The population of apple dimpling bugs at the study site was higher than GVB and green mirids, and remained so throughout the season. Therefore the trials were treated and assessed from 8 Jan. to 12 Feb. 2012 for green mirids, 26 Feb. 2012 for GVB and 4 Mar. 2012 for apple dimpling bugs. The treatment plots were arranged in a randomized complete block design with eight replicates per treatment. Each replicated plot measured 16 m (16 rows) wide and 250 m long.
Foliar applications of each treatment were made on 8 Jan. 22 Jan. and 5 Feb. 2012. The decision to apply the treatment was based on the IPM Guidelines and the CottonLogic recommended economic threshold of 0.5 green mirids per metre. Pre-treatment counts were made by visual counting of the numbers of green mirid, green vegetable bug and apple dimpling bug adults and nymphs, as well as predatory beetles, predatory bugs, predatory lacewings and spiders on cotton plants in each treatment. Post-treatment counts were made following the first spray at 7 and 14 DAT, following the second spray at 7 DAT for green mirids and GVB, and up to 28 DAT for the third spray for apple dimpling bugs. All counts were done on a randomly selected one-metre length of row of each treatment replicate (i.e. total of 8 m). Data were expressed as numbers per metre and numbers per metre per sampling date for each treatment.

Another series relates to spiders. The experiment in a line: Rate trial on conventional cotton, Norwood 2012 (Example 10): spiders. It counts as in vivo, Lycosa spp., Oxyopes spp., Salticidae spp., Araneus spp. Conditions: P>0.05. As for the experimental part:
as §1, §2, §3, §4, §5

For `N#Cc1nn(-c2c(Cl)cc(C(F)(F)F)cc2Cl)c(N)c1[S+]([O-])C(F)(F)F` (stereo not shown) [fipronil], in the series with predatory bugs, the “number of predatory bugs versus unsprayed (control) plots” value is reported as “No significant difference”. Also, the “No. predatory beetles per meter” value in the series on predatory beetles (3 DAT) turned out to be 2.67 ± 0.33 a per meter; in the series on predatory beetles (7 DAT), 2.33 ± 0.33 a per meter; with predatory beetles (14 DAT), 0.67 ± 0.33 a per meter; in the series with predatory beetles (21 DAT), 1.67 ± 0.33 a per meter; in the series on predatory beetles (pre-spray counts), 5.67 ± 0.67ab per meter. Besides, in the series with green mirids (at the second spray application), the “adult mirids found on treated plots” value is on record as “no adult mirids were found”. For the same compound, the “adult and nymph green mirids versus unsprayed (control) plots” value in the series with green mirids (different rates of DAT 511, fipronil 62.5 mL/ha, P<0.0001) is given as “Significantly fewer”. The “mirid nymphs found on treated plots” value in the series with green mirids (seven days after second spray, DAT 511 500 mL and 1.0 L/ha, fipronil) was “no mirid nymphs were found”. Besides, the “number of spiders versus unsprayed (control) plots” value with spiders is “No significant difference”.
